# Experimental data as given in PubChem BioAssay AID2305 (GlaxoSmithKline (GSK), 2010).
# Tested on: P. falciparum 3D7 growth, pLDH absorbance
# Experiment: P. falciparum 3D7 growth inhibition, dose response, strain 3D7 (AID 2305)
row,SMILES,IC50
1,COc1cc2nc(N3CCN(C(=O)c4c(Cl)nsc4-c4ccccc4Cl)CC3)nc(N)c2cc1OC,530 nM
2,N#Cc1cc(C(=O)c2cc(Cl)ccc2O)cn(-c2cccc(C(F)(F)F)c2)c1=O,1130 nM
3,COc1c(C2CCN(CCCCNC(=O)c3ccc(NC(=O)c4ccc(C#N)cc4)cc3)CC2)ccc2c1CCCC2,290 nM
4,COc1ccc(-c2cccc(NC(=O)c3cccc(Cl)c3)c2)cc1CN(C)CCN(C)C,810 nM
5,CCc1c(CCNC/C=C/C=C/CNCCc2ccc(OC)c(OC)c2CC)ccc(OC)c1OC,970 nM
6,c1ccc(Oc2ccc(Nc3ccnc4cc(-c5csc(CN6CCCCC6)n5)ccc34)cc2)nc1,580 nM
7,CCCC1(NC[C@@H](O)[C@H](Cc2ccccc2)NC(=O)c2cc(NCC)cc(N3CCCCS3(=O)=O)c2)CC1,1080 nM
8,O[C@@H](c1cccc2ccccc12)[C@@H]1CN(CCc2ccccc2)CC[C@@]1(O)c1ccccc1,140 nM
9,CCOc1ccc2nc(C)cc(NN=Cc3ccccc3[N+](=O)[O-])c2c1,30 nM
10,Cc1ccccc1OCC(O)CNC1CCC(NCC(O)COc2ccccc2C)CC1 (stereo not given),1190 nM
11,O=C(/C=C/c1ccc(Cl)c(Cl)c1)NCCCCCN1CCCC(CNS(=O)(=O)c2cccc(C(F)(F)F)c2)C1 (stereo not given),950 nM
12,COc1cc(OC)cc(C(=O)Nc2nc(-c3ccccn3)cs2)c1,560 nM
13,CC(C)c1ccc(NC(=O)N2CCc3ccc(OCCN(C(C)C)C(C)C)cc32)c(Br)c1,1090 nM
14,CC[C@H](NC(=O)c1c(CC2CCN(CC(C)=O)CC2)c(-c2ccccc2)nc2ccccc12)c1ccccc1,380 nM
15,Cc1cc(OCCCn2ccnc2)ccc1-c1csc(NC(N)=NCc2ccccc2)n1,880 nM
16,CC(Cc1ccc(OCCCCOc2ccccc2)cc1)NCCCc1nc2ccccc2[nH]1 (stereo not given),980 nM
17,Cc1nc(C)n(CC(=O)Nc2cccc(-c3cccc(-c4nc5ccc(C(F)(F)F)cc5[nH]4)c3)c2)n1,760 nM
18,O=C(Nc1ccc(-c2cccc(-c3nc4ccc(F)cc4[nH]3)c2)cc1)c1cnn2cccnc12,650 nM
19,Cc1cccc2[nH]c(-c3ccc(-c4cccc(C(=O)NCCN5CCCC5)c4)s3)nc12,1140 nM
20,Cc1ccc(-c2cc(C(=O)Nc3ccc(S(=O)(=O)N4CCOCC4)cc3)[nH]n2)c(O)c1C,920 nM
21,Cc1ccc2c(c1)C1(CC(=O)N(CCc3scnc3C)C1=O)C(=O)N2Cc1ccccc1 (stereo not given),1250 nM
22,CCn1ccc2c(N3CCCC3=O)cc(C(=O)N[C@@H](Cc3ccccc3)[C@H](O)CNCc3cccc(OC)c3)cc21,590 nM
23,O=S(=O)(NCCN1CCCC1)c1ccc(-c2cccc(CNCc3ccc(F)cc3)c2)cc1F,790 nM
24,CN(C)c1ccc2c(c1)Sc1cc(N(C)C)ccc1N2C(=O)CCCC(=O)O,800 nM

row,SMILES,IC50
1,CN(C)S(=O)(=O)n1ccc2c3c(N)nc(N)nc3ccc21,50 nM
2,O=C(NCCCCN1CCC(c2ccc3c(c2O)CCCC3)CC1)c1ccc(NC(=O)c2ccc(Cl)cc2)cc1,240 nM
3,Cc1cccc2[nH]c(-c3ccc(-c4ccc(NC(=O)C(C)CN(C)C)cc4)s3)nc12 (stereo not given),410 nM
4,CCN(CC)CCN(Cc1ccc(-c2ccc(C(F)(F)F)cc2)cc1)C(=O)Cn1cc(CCCCc2cccc(F)c2F)c(=O)c2ccccc21,880 nM
5,O=C(Nc1ccccc1Cl)c1cc2ccccc2cc1O,1010 nM
6,CCCC(C)Nc1nc(C)cc(N[C@@H](CC(C)C)C(=O)NCCOc2ccccc2)n1 (stereo not given in full),1710 nM
7,O=C(NC1CCCCN(Cc2ccccc2O)C1)c1cc(F)cc(F)c1 (stereo not given),1170 nM
8,CCCN1CCC=C(c2cccc(Nc3nccc(Nc4cc(OC)ccc4C)n3)c2)C1,1040 nM
9,O=S(=O)(NCCN1CCCC1)c1ccc(-c2ccc(CNC3Cc4ccccc4C3)cc2)cc1F,1000 nM
10,Cc1cc(N(CCCN(C)C)Cc2cc(F)cc(F)c2)nc(Nc2ccc(Cl)cc2)n1,540 nM
11,COc1ccccc1N1CCN(Cc2cc(C(C)C)c(C)cc2O)CC1,570 nM
12,CC(C)n1ncc2c(C(=O)N3CCCC4CCCCC43)cc(C3CC3)nc21 (stereo not given),680 nM
13,O=C1CCCC1Sc1nc2ccccc2c(=O)n1-c1ccc(Cl)c(Cl)c1 (stereo not given),730 nM
14,CCCCCCN1CCC(NCc2ccc(Cl)cc2)CC1,850 nM
15,Cc1ccc(NC(=O)NC2CCN(CCCCCNC(=O)[C@@H]3C[C@H]3c3ccc(Cl)c(Cl)c3)CC2)cc1,540 nM
16,Oc1ccc(CN2CCN(CCOC(c3ccccc3)c3ccc(Cl)cc3)CC2)cc1Cl (stereo not given),860 nM
17,COc1ccc2ncn(-c3ccc(C(N)=O)c(OCc4ccccc4C(F)(F)F)c3)c2c1,540 nM
18,Nc1nc(N)c2c(ccc3nccc32)[nH]1,1080 nM
19,Nc1nccc2ccc(-c3ccncc3)cc12,250 nM
20,CN(C)CCOc1ccc(-c2cc(-c3ccnc(N)n3)c(-c3ccc(Cl)c(O)c3)o2)cc1,980 nM
21,CC[C@H](C)CNC(=O)c1cncc(-c2ccc(CN(C)C3CCN(C)CC3)cc2)c1,990 nM
22,Cc1cccc2[nH]c(-c3ccc(-c4ccc(CN5CCN(CCN6CCOCC6)CC5)cc4)cc3)nc12,230 nM
23,O=c1cc(NCCCNC2CCc3ccc(Cl)cc32)[nH]c2ccccc12 (stereo not given),860 nM
24,COc1ccc(NC(=O)/C=C/c2cc(Br)ccc2F)cc1OCCN(C(C)C)C(C)C,760 nM

row,SMILES,IC50
1,COc1cc2nc(NCC3CCCO3)n3nc(-c4ccccc4)nc3c2cc1OC (stereo not given),210 nM
2,CCOc1cc(C(=O)NCc2cc(Cl)cc(Cl)c2)ccc1-c1nc2ccc(Cl)cc2[nH]1,730 nM
3,CS(=O)(=O)Cc1cccc(Nc2ncc(Cl)c(Nc3cccnc3C(N)=O)n2)c1,170 nM
4,Oc1ccc(Nc2nc(NCc3ccco3)c3ccccc3n2)cc1,670 nM
5,Cc1ccc2c(=O)cc(CCc3cccc(F)c3F)n(CC(=O)N(Cc3ccc(-c4ccc(C(F)(F)F)cc4)cc3)C3CCN(C(C)C)CC3)c2n1,780 nM
6,COc1cc(Cc2cnc(N)nc2N)cc(OC)c1OCCNC(=O)[C@@H](N)CCC(=O)O,840 nM
7,CCC(=O)N(c1ccccc1)C1CCN(CCCC(NC(=O)c2cc(C(F)(F)F)cc(C(F)(F)F)c2)c2ccc(Cl)c(Cl)c2)CC1 (stereo not given),800 nM
8,CN(C(=O)c1nn(-c2ccccn2)c2nccc(-c3cccs3)c12)C1CCCCC1,1240 nM
9,Cc1cc(N(C)C2CCN(C)CC2)nc(Nc2ccc(Cl)cc2)n1,290 nM
10,Cc1nc2ccccc2c(=O)n1NCc1ccc(Cl)c(Cl)c1,150 nM
11,O=C(Nc1cccc(CN2CCCN(CC3CCCCC3)CC2)c1)c1cc2ccccc2s1,810 nM
12,O=[N+]([O-])c1ccc(Oc2ccccc2CNCC2CCN(CC3CCCCC3)CC2)cc1,900 nM
13,CC(C)c1ccc(NC(=O)NC2CCN(CCCCCNC(=O)/C=C/c3ccc(Cl)c(Cl)c3)CC2)cc1,670 nM
14,N#Cc1ccc2c(c1)CCN(CCC1CCC(NC(=O)c3cc4ccc(Cl)cc4[nH]3)CC1)C2 (stereo not given),700 nM
15,Cn1cc(CCNc2ccnc(N3CCC(c4ncc[nH]4)CC3)n2)c2ccccc21,1200 nM
16,Cc1[nH]c(C)c(-c2ccc(-c3ccc(F)cc3)cc2)c(=O)c1Cl,660 nM
17,CCCCN1CCN(Cc2cccc(NC(=O)c3ccc(Cl)c(Cl)c3)c2)CC1,1160 nM
18,CCOC(=O)c1cc(C(=O)NCCCCN2CCC(c3ccc(CC)cc3OCC)CC2)ccc1-c1ccc(C(F)(F)F)cc1,610 nM
19,COc1ccc2c(NN=Cc3ccccc3F)cc(C)nc2c1,1000 nM
20,CC(C)c1sc(-c2ccc(C(C)(C)C)cc2)nc1C(=O)NCCCN1CCCC1=O,670 nM
21,CC(=O)Nc1ccc(S(=O)(=O)N(Cc2cccc(Oc3ccccc3)c2)C2CCN(C/C=C(\C)CCC=C(C)C)CC2)cc1,190 nM
22,CCc1cn2c3c(cc(C(=O)N[C@@H](Cc4ccccc4)[C@H](O)CNC4CCOCC4)cc13)N(C)S(=O)(=O)C2,90 nM
